{
  "source": "patent US11351218B2",
  "about": "“Composition for preventing or treating glioblastoma comprising Platycodon grandiflorum A. De Candolle, Scutellaria baicalensis, Phellodendron amurense Ruprecht or Rubus coreanus” (University-Industry Cooperation Group of Kyung Hee …, priority 2019, dated 2022)",
  "key": {"SQSTM1 mRNA": {"system": "SQSTM1 mRNA", "assay": "RT-PCR of SQSTM1 (p62) mRNA in GBM cells", "format": "cell-based, human", "settings": "PD 5 μM and 10 μM, 24 hours, both GBM cells", "description": "FIGS. 3A to 3C show the results that PD inhibits autophagic flux in GBM cells. […] The expression of LC3B and SQSTM1 was confirmed by immunoblot analysis. […] GAPDH was used as a loading control.\nTotal RNA was isolated using the Easy-Blue RNA extraction kit (iNtRON Biotech, Sungnam, Korea) according to the manufacturer's directions. 1 μg of the total RNA was reverse transcribed using a cDNA synthesis kit (TaKaRa, Otsu, Shinga, Japan) according to the manufacturer's instructions. The obtained cDNA was then amplified by PCR in a reaction mixture consisting of 10× Taq buffer, 2.5 mM dNTP mixture, Taq DNA polymerase (Takara), and corresponding primer sets. The primer sequences were as follows. Human SQSTM1-forward: 5′-GAACTCCAGTCCCTACAGATGCC-3′ (SEQ ID NO: 1), SQSTM1-reverse: 5′-CGGGAGATGTGGGTACAAGG 2-3′ (SEQ ID NO: 2); Human LDLR-forward: 5′-CAG ATA TCA TCA ACG AAG C-3′ (SEQ ID NO: 3), LDLR-reverse: 5′-CCTCTCACACCAGTTCACTCC-3′ (SEQ ID NO: 4); Human GAPDH-forward: 5′-CGTCTTCACCACCATGGAGA-3′ (SEQ ID NO: 5), GAPDH—reverse: 5′-CGGCCATCACGCCACAGTTT-3′ (SEQ ID NO: 6). The PCR products were analyzed by 1.5% agarose gels."}, "U87MG and U373MG cells [1]": {"system": "U87MG and U373MG cells", "assay": "WST1 cell viability assay, GBM cells", "format": "cell-based, human", "description": "(§1) FIGS. 6A and 6B show the results that PD induces a decrease in cell viability and vacuole formation. […] Data shown represent the means of quintuplicate measurements which were repeated three times. The results are presented as a percentage of control (means±SD).\n(§2) Cell cytotoxicity was assessed by WST1 assay. U87 and U373 cells were each seeded in a 96-well plate (5×10^3 cells/well) and treated with different concentrations of platycodin D (PD). Then, cells were incubated with a WST1 reagent (Dogen, Seoul, Korea) for 2 hours before reading the plate. Absorbance was measured at 450 nm using an ELISA reader (Versa Max, Molecular Devices, Sunnyvale, Calif., USA)."}, "normal human astrocytes": {"system": "normal human astrocytes", "assay": "WST1 cell viability assay, normal astrocytes", "format": "cell-based", "settings": "normal human astrocytes vs GBM cells, 48 hours", "description": "as §1, §2\nInhibition of autophagy has been reported to cause cancer cell death. Therefore, the cytotoxic effects of PD on U87MG, U373MG, and normal astrocytes were examined. After treating these cells with various doses of PD for 48 hours, their cell viability was analyzed by WST1 assays. […] As can be confirmed in FIG. 6B, morphological changes were also visualized by an optical microscope after exposure of GBM cells to 10 μM PD for 24 hours."}, "[2]": {"system": "A549, H358, MCF7, HT29 and HepG2 cells", "assay": "WST1 cell viability assay in various cancer cell lines", "format": "cell-based", "settings": "different concentrations, 48 hours, all cell lines tested", "description": "FIGS. 9A to 9C show the results that PD decreases cell viability and vacuole formation in various cancer cell lines. FIGS. 9A and 9B show the results in which indicated cells were treated with different concentrations of PG or PD for 48 hours and cell viability was measured by WST1 assay. Data shown represent the means of quintuplicate measurements which were repeated three times. The results are presented as a percentage of control (means±SD).\nas §2\nPreviously, PD was reported to inhibit cell viability in various cancer cell lines. To further confirm the effects of PD on the cytotoxicity of cancer cells, WST1 assay was performed following treatment with different concentrations of PD."}, "U87MG and U373MG cells [3]": {"system": "U87MG and U373MG cells", "assay": "mRFP-GFP-LC3 tandem reporter (autolysosome formation) in GBM cells", "format": "cell-based, human", "settings": "PD 10 μM or Rapa 1 μM, 24 hours", "description": "Cells stably expressing mRFP-GFP-LC3 were incubated with PD (10 μM) or Rapa (1 μM) for 24 hours, and then analyzed by confocal microscopy. The merged images (yellow) show an overlap between GFP-LC3 (green) and mRFP-LC3 (red). The panels on the right are higher-magnification images of the boxed regions.\nIn order to examine whether PD induces accumulation of autophagosomes by inhibiting their maturation into autolysosomes, a tandem-tagged fluorescent reporter, mRFP-GFP-LC3, was used. The GFP fluorescence of the fusion protein is rapidly quenched in lysosomal acidic conditions, whereas the RFP fluorescence is relatively stable. The yellow dots in the merged image are indicative of autophagsomes and […] dots correspond to autolysosomes. The mRFP-GFP-LC3 plasmids were transfected into U87MG and U373MG cells, treated with PD for 24 hours, and subjected to confocal microscopy."}, "U87MG and U373MG cells [4]": {"system": "U87MG and U373MG cells", "assay": "DQ Red-BSA trafficking assay (lysosomal proteolytic activity) in GBM cells", "format": "cell-based, human", "settings": "PD 10 μM or BafA1 (100 μM), 24 hours", "description": "Cells were incubated with DMSO, PD (10 μM), or BafA1 (100 μM) for 24 hours, and then the cells were treated with DQ-BSA ([…]) for 30 minutes. Data shown are representative images of each sample. The fluorescence intensity of DQ-BSA was quantified with ImageJ software. More than 100 cells were counted in each condition and the number of puncta per cells is presented as means±SD from three independent experiments.\nCells were placed on coverslips prior to treatment with the materials and continuously loaded with DQ Red-BSA (Invitrogen) at a working concentration of 10 μg/mL in a culture medium at 37° C. for 30 minutes. The cells were fixed in 4% PFA and then subjected to DAPI staining. The images were examined under a Zeiss laser confocal microscope. The number of DQ Red-BSA spots was quantified using ImageJ software.\nTo confirm the lysosomal activity in PD-treated GBM cells, the DQ-BSA assay was performed to assess lysosomal protein degradation. In DQ-BSA, which is a red BODIPY dye conjugated to bovine serum albumin (BSA), the BSA is so heavily conjugated that the red fluorescence is self-quenched. Upon cleavage of the DQ-BSA by proteolytic enzymes in lysosomal compartments, this quenching is relieved, generating red fluorescence. Thus, DQ-BSA is a useful tool to visualize a lysosomal proteolytic activity."}},
  "data": [
    {"smiles": "C[C@@H]1O[C@@H](O[C@H]2[C@H](OC(=O)[C@]34CCC(C)(C)C[C@H]3C3=CC[C@@H]5[C@@]6(C)C[C@H](O)[C@H](O[C@@H]7O[C@H](CO)[C@@H](O)[C@H](O)[C@H]7O)C(CO)(CO)[C@@H]6CC[C@@]5(C)[C@]3(C)C[C@H]4O)OC[C@H](O)[C@@H]2O)[C@H](O)[C@H](O)[C@H]1O[C@@H]1OC[C@@H](O)[C@H](O[C@@H]2OC[C@](O)(CO)[C@H]2O)[C@H]1O", "note": "[PD, platycodin D]", "values": [
      {"measurement": "p62 mRNA levels", "setting": "SQSTM1 mRNA", "result": "did not alter"},
      {"measurement": "viability of GBM cells", "setting": "U87MG and U373MG cells [1]; 10 μM PD, 3 days", "result": "reduced the viability"},
      {"measurement": "percentage of viable cells", "setting": "U87MG and U373MG cells [1]; PD 0-20 μM, 48 hours, dose-dependent", "result": "significantly decreased"},
      {"measurement": "cell viability", "setting": "U87MG and U373MG cells [1]; PD 10 μM, 48 hours, GBM cells, percentage of control", "result": "approximately 60%"},
      {"measurement": "PD-mediated reduction in cell viability", "setting": "normal human astrocytes", "result": "less effective"},
      {"measurement": "cell viability", "setting": "[2]", "result": "suppressed the-viability in a dose-dependent manner"},
      {"measurement": "mRFP and GFP dots of mRFP-GFP-LC3", "setting": "U87MG and U373MG cells [3]", "result": "GFP-positive dots were retained and colocalized with mRFP dots"},
      {"measurement": "DQ-BSA red fluorescence vs DMSO", "setting": "U87MG and U373MG cells [4]", "result": "significant reduction"}
    ]}
  ]
}
